Earlier results, collected in patent US20200289459A1, “LIQUID DOSAGE FORMS, METHODS OF MAKING AND USE” (CANOPY GROWTH CORPORATION, priority 2017, published 2020).

Assays:
CB2 receptor = CB2 receptor (Homo sapiens, UniProt P34972)
[1] = test system: locomotor suppression, catalepsy, hypothermia and analgesia; details: up to 80 mg/kg
CB1 receptor = CB1 receptor (Homo sapiens, UniProt P21554)
5-HT1A receptor = molecular target: T1, 5-HT1A receptor (Homo sapiens, UniProt P08908)
T1 sequence (P08908 1-422): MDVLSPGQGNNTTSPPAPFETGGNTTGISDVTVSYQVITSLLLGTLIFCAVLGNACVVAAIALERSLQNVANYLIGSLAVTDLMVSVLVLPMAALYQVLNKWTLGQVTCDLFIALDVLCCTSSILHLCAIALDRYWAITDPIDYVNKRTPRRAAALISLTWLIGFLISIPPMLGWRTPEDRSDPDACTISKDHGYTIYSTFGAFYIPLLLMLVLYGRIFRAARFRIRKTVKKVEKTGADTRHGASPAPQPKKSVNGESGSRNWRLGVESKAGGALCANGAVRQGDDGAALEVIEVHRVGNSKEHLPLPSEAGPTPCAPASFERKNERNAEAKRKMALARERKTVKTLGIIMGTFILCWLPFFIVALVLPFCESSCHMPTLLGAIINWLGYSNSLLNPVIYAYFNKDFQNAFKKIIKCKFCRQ

CB1 receptor, sequence (P21554 whole entry): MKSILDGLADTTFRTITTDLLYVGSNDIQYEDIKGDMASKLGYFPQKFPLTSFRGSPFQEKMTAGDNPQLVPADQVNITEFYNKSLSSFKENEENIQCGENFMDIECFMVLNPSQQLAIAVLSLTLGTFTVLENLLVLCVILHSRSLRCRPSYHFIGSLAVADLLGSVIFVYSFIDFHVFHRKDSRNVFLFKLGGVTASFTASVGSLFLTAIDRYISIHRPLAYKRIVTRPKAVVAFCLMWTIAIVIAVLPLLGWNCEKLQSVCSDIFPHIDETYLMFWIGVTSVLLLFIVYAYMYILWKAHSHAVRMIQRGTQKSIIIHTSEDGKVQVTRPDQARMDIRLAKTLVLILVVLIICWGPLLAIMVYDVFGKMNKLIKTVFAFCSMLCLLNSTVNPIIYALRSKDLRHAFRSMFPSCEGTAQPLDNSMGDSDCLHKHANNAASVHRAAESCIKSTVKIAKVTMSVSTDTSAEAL
CB2 receptor, sequence (P34972 whole entry): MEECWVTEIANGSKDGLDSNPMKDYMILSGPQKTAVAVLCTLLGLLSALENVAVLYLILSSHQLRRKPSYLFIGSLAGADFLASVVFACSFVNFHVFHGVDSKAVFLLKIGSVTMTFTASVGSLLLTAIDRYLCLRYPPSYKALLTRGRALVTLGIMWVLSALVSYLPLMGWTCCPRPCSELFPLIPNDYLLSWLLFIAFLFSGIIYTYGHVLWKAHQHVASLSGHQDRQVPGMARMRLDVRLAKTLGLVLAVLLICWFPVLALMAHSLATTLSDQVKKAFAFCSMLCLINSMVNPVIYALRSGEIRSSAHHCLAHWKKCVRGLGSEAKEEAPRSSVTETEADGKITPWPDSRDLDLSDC

Compound: CCCCCc1cc(O)c(C/C=C(\C)CCC=C(C)C)c(O)c1 [CBG, Cannabigerol]
- binding to the CB2 receptor (CB2 receptor): antagonist
- effect in the mouse tetrad test of cannabimimetic activity [1]: without effect
- affinity as α2-adrenergic receptor agonist (α2-adrenergic receptor): high affinity
- affinity as CB1 receptor antagonist (CB1 receptor): low affinity
- affinity as 5-HT1A receptor antagonist (5-HT1A receptor): moderate affinity
